Where two headings read alike, the source gives them in different places.
Experiments:
[1] = test system: A549 lung cancer cells; assay: Cytotoxicity assay (CellTiter-Glo 2.0 viability)
Experimental: A549 lung cancer cells (ATCC, USA) were maintained in a humidified CO2 (5%) incubator at 37° C. in RPMI (Thermo Fisher, USA) supplemented with 10% fetal bovine serum in the presence of 1% Penicillin-Streptomycin-Glutamine (Thermo Fisher, USA) and 0.2% Normocin (InvivoGen, USA).
The cells were plated in 96-well TC treated plates (PerkinElmer, USA) at a 6,000 cells/well density 24 h prior to the addition of the drugs. All drugs, prodrugs and PEG-DPTz in DMSO stock solution were serially diluted in pre-warmed culture medium at 37° C. For samples assessing the reaction-induced drug release, prodrugs were added to the cells first (100 μL final volume per well) in a series of final concentrations ranging from 0.005 to 10 μM followed by addition of PEG-DPTz (20, 40 and 80 μM).
After 72 h incubation at 37° C., cell proliferation was assessed by a CellTiter-Glo©2.0 viability assay according to the manufacturer's instructions. After 15 min incubation at 25° C., the medium was gently measured with Envision 2104 Multilabel Reader (PerkinElmer, USA) to get the luminescent based on quantitation of the ATP present, an indicator of metabolically active cells. The proliferation assay was performed in quadruplet measurements (n=4). EC50 values were derived from the normalized cell growth and Growth/Sigmoidal formula were fitted and generated with Origin 8.0. […] The results are expressed as the mean±standard deviation (n=4).

[2] = Kinetics of Tz-induced release from ICPr/ICPrc groups in PBS:DMSO; conditions: for bimolecular rate constant k2: PEG-DPTz c=0.2 mM, excess probe c=2 mM, T=37° C., PBS:DMSO (9:1), pseudo-first order fit; for k1,elim, release of fluorophore from 3-oxopropyl intermediate: in PBS, after reaction with PEG-DPTz
Experimental: (§1) Fitting the disappearance of PEG-DPTz (c=0.2 mM) absorbance in the presence of excess ICPr-O-NA or ICPrc-NH-NA (c=2 mM;T=37° C., PBS:DMSO (9:1)) to a pseudo-first order rate equation provided the bimolecular rate constants k2(ICPr-O-NA)=4.0±0.2 M^−1s^−1 and k2(ICPrc-NH-NA)=1.1±0.2 M^−1s^−1, respectively. Release of the fluorophores in PBS from the postulated 3-oxopropyl intermediate was delayed relative to the reaction of the ICPr/ICPrc-groups with PEG-DPTz (k1,elim(HO-NA)=1.6×10^−4 s^−1; k1,elim(H2N-NA)=5.00×10^−5 s^−1; FIG. 4B, right column) in agreement with studies of cargo release from such groups. The aldehyde intermediate was detectable by NMR in DMSO-d6:D2O (9:1). To our delight, fluorophore release in diluted human serum (T=37° C., PBS:serum (1:1)) reached completion in few minutes because serum albumin can catalyze the β-elimination reaction.

[3] = Fluorophore release (β-elimination) in diluted human serum; conditions: T=37° C., PBS:serum (1:1)
Experimental: as §1

[4] = Stability in serum in the absence of Tz; type: in vitro ADME, human
[5] = test system: zebrafish embryos; conditions: medium c=0, 1, 10 μM, t=8 h
Experimental: Zebrafish embryos were used as a model organism to evaluate the activity of uncaged payload molecules in vivo. […] For the fluorescence study, Tz-PSs were implanted into the yolk sacs of zebrafish embryos followed by incubation with ICPr-rsf (c=10 μM). […] Mexiletine is a voltage-gated sodium channel blocker known to induce cardiac arrhythmia, and which has been reported to decrease heart rate.
UV-VIS photospectrometic kinetic measurements were performed on a microplate reader SpectramaX M5 (Molecular Device, USA) in 96-well plates or 1 mL quartz cuvette. Cell proliferation assays were performed on an Envision 2104 Multilabel Reader (PerkinElmer, USA). Zebrafish Imaging and Efficiency Test (Heart Rate Reduction) were performed with Zeiss SteREO Discovery.V8 microscope (Zeiss, Jena, Germany) fitted with a PentaFluor S 120 vertical illuminator and coupled with an Xcite Series 120PC light source.

[6] = test system: zebrafish embryos; assay: In vivo uncaging of resorufin fluorescence in zebrafish embryos implanted with Tz-PS beads; conditions: c=10 μM, t=8 h, Tz-PS implanted into yolk sacs
[7] = read-out: EC50 cytotoxicity, prodrug combined with PEG-DPTz, A549 cells, prodrug + excess PEG-DPTz (c=80 μM), 72 h

## COc1cccc2c1C(=O)c1c(O)c3c(c(O)c1C2=O)C[C@@](O)(C(=O)CO)C[C@@H]3O[C@H]1C[C@H](N)[C@H](O)[C@H](C)O1 [dox, doxorubicin, reference compound]
[1]; Homo sapiens, A549, 72 h, read-out: EC50 cytotoxicity, free drug
  EC50: 144 ± 28 nM

## [C-]#[N+]CCCOc1ccc2c3c(cccc13)C(=O)N(CCOCCOCCOCCOC)C2=O [ICPr-O-NA, N-(methyl-PEG4)-4-(3-isocyanopropyl-1-oxy)-1,8-naphthalimide]
[2]
  bimolecular rate constant k2: 4.0 ± 0.2 M⁻¹ s⁻¹
[3]
  apparent first-order rate constant k1,elim in serum: 0.0042 s⁻¹
[4]
  stability in serum: completely stable in serum for at least three days

## [C-]#[N+]CCCOC(=O)Nc1ccc2c3c(cccc13)C(=O)N(CCOCCOCCOCCOC)C2=O [ICPrc-NH-NA]
[2]
  bimolecular rate constant k2: 1.1 ± 0.2 M⁻¹ s⁻¹
[3]
  apparent first-order rate constant k1,elim in serum: 0.0016 s⁻¹

## COCCOCCOCCOCCN1C(=O)c2cccc3c(N)ccc(c23)C1=O [Structure H2N-NA, N-(methyl-PEG4)-4-amino-1,8-naphthalimide]
[2]
  k1,elim, release of fluorophore from 3-oxopropyl intermediate: 5e-05 s⁻¹

## [C-]#[N+]CCCOC(=O)NC(C)COc1c(C)cccc1C (centres unmarked) [ICPrc-mex, N-(3-isocyanopropyl-1-carbamoyl)mexiletine]
[5]
  heart rate in control fish bearing unmodified beads: no changes were observed
[5]; normalized to heart rate at t=0 h
  heart rate in fish with implanted Tz-PS: dose-dependent decrease in heart rate

## [C-]#[N+]CCCOC(=O)NC1CC(OC2CC(O)(C(=O)CO)Cc3c(O)c4c(c(O)c32)C(=O)c2c(OC)cccc2C4=O)OC(C)C1O (centres unmarked) [ICPrc-dox, N-(3-isocyanopropyl-1-carbamoyl)doxorubicin]
[1]; [7]
  EC50: 165 ± 35 nM

## [C-]#[N+]CCCOC(=O)N1C2CN3C4=C(C(=O)C(N)=C(C)C4=O)C(COC(N)=O)C3(OC)C21 (centres unmarked) [ICPrc-mmC, N-(3-isocyanopropyl-1-carbamoyl)Mitomycin C]
[1]; [7]
  EC50: 244 ± 17 nM

## COCCOCCOCCOCCN1C(=O)c2cccc3c(O)ccc(c23)C1=O [HO-NA, N-(methyl-PEG4)-4-hydroxy-1,8-naphthalimide]
[2]
  k1,elim, release of fluorophore from 3-oxopropyl intermediate: 0.00016 s⁻¹

## N-(methyl-PEG4)-4-(3-isocyanopropyl-carbamoyl)amino-1,8-naphthalimide [ICPrc-NH-NA]
[4]
  stability in serum: completely stable in serum for at least three days

## [C-]#[N+]CCCOc1ccc2nc3ccc(=O)cc-3oc2c1 [ICPr-rsf, 3-isocyanopropyl resorufin ether]
[6]
  fluorescence staining, fish with Tz-PS versus controls with unmodified beads: 5.2 fold

— patent US20230390401A1, “RAPIDLY RELEASED BIOORTHOGONAL CAGING GROUPS” (University of Utah Research Foundation, priority 2018, published 2023)
